“Also recorded” adds a separate entry of the source. Like-named read-outs stand apart in the source and are kept apart here.
Legend:
AIDS virus [1] = details: background; cited from earlier work
[2] = system: reverse transcriptase of AIDS virus; details: background; cited from earlier work
AIDS virus in MT-4 cells = experiment: Anti-AIDS virus activities, reverse transcriptase activities (MT-4 cells); format: cell-based, HIV (human immunodeficiency virus); details: 10 days, virus (-) 2481, virus (+) 348764
Procedure: Further, anti-AIDS virus activities of schizophyllan sulfates were studied by using MT-4 cells. Cells were prepared in the same manner as in Example 1(3), and into each well, 1 ml of a cell suspension containing 14×10^4 cells/ml, 1 ml of a culture medium and a sample solution were added, followed by culturing for 10 days. The anti-AIDS virus activities of schizophyllan sulfates were studied by the observation of the cytopathic effects, by the measurement of reverse transcriptase activities and by the indirect immunofluorescence assay.

[3] = system: AIDS virus (virus derived from Tall-1/HTLV-III) in Molt-4/cl. No. 8 cells; experiment: Anti-AIDS virus activities, reverse transcriptase activities (Molt-4/cl. No. 8 cells); format: cell-based, HIV (human immunodeficiency virus)
Procedure: Virus derived from Tall-1/HTLV-III were adsorbed on Molt-4/cl. No. 8 cells. Then, the cells were washed with a culture medium to remove virus not adsorbed on the cells. The cells thus obtained were subjected to the following test.
[…] Culturing was conducted for 8 days, and cytopathic effects (CPE) by virus were observed. Further, on the 8th day, the supernatant of the culture medium was sampled and subjected to the measurement of reverse transcriptase activities. The cells were subjected to an indirect immunofluorescence assay to detect the virus antigen.
The anti-AIDS virus activities were studied with respect to the sulfates of scleroglucan and pendulan thus obtained, in accordance with the method as used in Example 1(3).
Schizophyllans having different molecular weights were sulfated in accordance with method A in Example 1 (polysaccharide: 0.5 g; pyridine/sulfuric anhydride complex: 5 g; reaction time: 5 hours). The anti-AIDS virus activities were studied with respect to the polysaccharide sulfates thus obtained, in accordance with the method as described in Example 1(3). As the control, dextran sulfate was used.

[4] = system: AIDS virus in human peripheral lymphocytes; experiment: Anti-AIDS virus activities in a human peripheral blood lymphocytes system, reverse transcriptase activities; format: cell-based, HIV (human immunodeficiency virus); details: Case 2, 100 μg/ml
Procedure: In the foregoing Examples, the anti-AIDS virus activities of schizophyllan sulfates were studied in a subcultured cell line. In this Example, a test was conducted for the effects of schizophyllan sulfates for suppressing proliferation of AIDS virus in a human peripheral lymphocytes system. Lymphocytes were separated from peripheral blood of an AIDS patient by Ficoll-Paque Separation, washed three times with a serum-free culture medium and suspended in a culture medium containing 10% of FCS. Adsorbable cells were removed, and suspended cells were collected and suspended in a culture medium. Then, PHA and IL-2 were added thereto. Healthy human lymphocytes were prepared 3 days ahead by the above-mentioned method. Into each well of a microplate having 24 wells, 10^6 /1 ml of patient's lymphocytes, a culture medium, 10^6 /1 ml of healthy human lymphocytes and a schizophyllan sulfate solution were introduced, mixed and cultured. On the seventh day and eleventh day after initiation of the culturing, the supernatant was sampled and subjected to the measurement of reverse transcriptase activities. Into each well, a sampled supernatant and the same amount of a culture medium were introduced and culturing was continued.

AIDS virus [5] = experiment: Anti-AIDS virus activities (general statements, test not specified); parameters: species or system HIV (human immunodeficiency virus); details: general findings of the inventors
[6] = system: spleen of a mouse (spleen cells); experiment: Mitogenic activities (3H-thymidine uptake, mouse spleen cells); format: cell-based
Procedure: A spleen of a mouse was aseptically taken out and dispersed in a culture medium to obtain a cell suspension containing 3×10^6 cells/ml. The cells were subdivided into wells of a 96 well-microplate so as to adjust the cell number in each well to 3×10^5. A culture medium and a sample were added to each well, followed by culturing for 3 days. On the third day, 0.5 μCi of ^3 H-thymidine was added to each well, and culturing was conducted for further 7 hours. Then, the cells were harvested and thoroughly washed, and the amount of ^3 H-thymidine taken into the cells was measured by a liquid scintillation counter.

Sarcoma 180 cells = experiment: Anti-tumor activities, Sarcoma 180 in mice; format: in vivo
Procedure: 2×10^6 Sarcoma 180 cells were transplanted subcutaneously into the groins of mice. Twenty four hours later, 0.05 ml of a 0.5% PBS solution of schizophyllan sulfate was administered to a rear femoral muscle. Thirty days later, the mice were killed and dissected, and tumors were taken out and weighed. The tumor inhibition rates were culculated by the following equation. [formula] where A and B denote the average tumor weights (g) of the control group and the treated group.
Each group consisted of 6 mice. To the control group, PBS was administered in the same amount as in the tested group.

NC(=O)c1ncn([C@@H]2O[C@H](CO)[C@@H](O)[C@H]2O)n1 [ribavirin]
anti-AIDS virus activities (AIDS virus [1]): known to exibit anti-AIDS effects

Cc1ccc(C(=O)Nc2ccc(S(=O)(=O)O)c3cc(S(=O)(=O)O)cc(S(=O)(=O)O)c23)cc1NC(=O)c1cccc(NC(=O)Nc2cccc(C(=O)Nc3cc(C(=O)Nc4ccc(S(=O)(=O)O)c5cc(S(=O)(=O)O)cc(S(=O)(=O)O)c45)ccc3C)c2)c1 [suramin]
anti-AIDS virus activities (AIDS virus [1]): known to exibit anti-AIDS effects

.iota.-carrageenan
inhibition of the reverse transcriptase of AIDS virus [2]: have similar physiological activities

Dextran sulfate
anti-AIDS virus activities (AIDS virus [1]): have anti-AIDS virus activities | Reverse transcriptase activities (CPM) (AIDS virus in MT-4 cells; 100 μg/ml): 22317 ± 4502 CPM | Reverse transcriptase activities (CPM) (AIDS virus in MT-4 cells; 500 μg/ml): 18501 ± 2249 CPM | Reverse transcriptase activities (CPM) ([3]; 100 μg/ml, Molt-4/cl. No. 8 cells, 8 days, Table 3, virus (-) 199, virus (+) 27557): 1947 ± 64 CPM | Reverse transcriptase activities (CPM) ([3]; 100 μg/ml, Table 8, virus (-) 621, virus (+) 51344): 1781 ± 169 CPM | Reverse transcriptase activities (CPM) ([3]; 100 μg/ml, Table 9, virus (-) 854, virus (+) 49291): 1738 ± 251 CPM | Reverse transcriptase activities (CPM) ([3]; 500 μg/ml, Molt-4/cl. No. 8 cells, 8 days, Table 3, virus (-) 199, virus (+) 27557): 703 ± 56 CPM | Reverse transcriptase activities (CPM) ([3]; 500 μg/ml, Table 8, virus (-) 621, virus (+) 51344): 923 ± 32 CPM | Reverse transcriptase activities (CPM) ([3]; 500 μg/ml, Table 9, virus (-) 854, virus (+) 49291): 923 ± 87 CPM | Reverse transcriptase activities (CPM) ([4]; 7th day, no addition 2872): 1789 ± 53 CPM | Reverse transcriptase activities (CPM) ([4]; 11th day, no addition 80436): 42792 ± 14582 CPM | Reverse transcriptase activities (CPM) ([4]; 18th day, no addition 67665): 280741 ± 31039 CPM | anti-AIDS virus activities (AIDS virus [5]): stronger activities than the sulfates of e.g. mannan, pullulan and alginic acid; also recorded: have anti-AIDS virus activities

Schizophyllan
mitogenic activities [6]: not observed | Mitogenic activities, Count (CPM), control ([6]; control substances, concentration not stated (printed under the 100 μg/ml column), Table 2): 1981 ± 184 CPM | Control rate (%) (tumor inhibition rate) (Sarcoma 180 cells; 0.05 ml of 0.5% PBS solution, rear femoral muscle, 30 days): 99.0% | Average weight (g) of tumor (wt ± S.E.) (Sarcoma 180 cells; 0.05 ml of 0.5% PBS solution, rear femoral muscle, 30 days, PBS control 4.07): 0.04 ± 0.016 g | anti-tumor activities (Sarcoma 180 cells; mouse, in vivo): having anti-tumor activities

chondroitin sulfate
inhibition of the reverse transcriptase of AIDS virus [2]: have similar physiological activities

dextran
anti-AIDS virus activities (AIDS virus [1]): having no anti-AIDS virus activities

heparin
inhibition of the reverse transcriptase of AIDS virus [2]: have similar physiological activities

interferon
anti-AIDS virus activities (AIDS virus [1]): known to exibit anti-AIDS effects

k-carrageenan
inhibition of the reverse transcriptase of AIDS virus [2]: have similar physiological activities

lentinan sulfate
anti-AIDS virus activities (AIDS virus [5]): have anti-AIDS virus activities

λ-carrageenan
inhibition of the reverse transcriptase of AIDS virus [2]: have similar physiological activities

— US5053398A, “Sulfated homopolysaccharides as anti-AIDS virus agents” (Taito Co., Ltd., priority 1988, dated 1991)
